Laboratory results: BindingDB's records for doi:10.1016/j.bmcl.2009.08.023 (Roche Palo Alto, 2009)
pIC50: −log10 of the molar value.

Biological target: Genome polyprotein (Hepatitis C virus genotype 1b (isolate Con1), UniProt Q9WMX2)
Assay: Inhibition of […] 1b con1 NS5B polymerase assessed as [3H]UTP incorporation into acid insoluble RNA product

Chain of Genome polyprotein (Q9WMX2 2420-3010 limits assumed): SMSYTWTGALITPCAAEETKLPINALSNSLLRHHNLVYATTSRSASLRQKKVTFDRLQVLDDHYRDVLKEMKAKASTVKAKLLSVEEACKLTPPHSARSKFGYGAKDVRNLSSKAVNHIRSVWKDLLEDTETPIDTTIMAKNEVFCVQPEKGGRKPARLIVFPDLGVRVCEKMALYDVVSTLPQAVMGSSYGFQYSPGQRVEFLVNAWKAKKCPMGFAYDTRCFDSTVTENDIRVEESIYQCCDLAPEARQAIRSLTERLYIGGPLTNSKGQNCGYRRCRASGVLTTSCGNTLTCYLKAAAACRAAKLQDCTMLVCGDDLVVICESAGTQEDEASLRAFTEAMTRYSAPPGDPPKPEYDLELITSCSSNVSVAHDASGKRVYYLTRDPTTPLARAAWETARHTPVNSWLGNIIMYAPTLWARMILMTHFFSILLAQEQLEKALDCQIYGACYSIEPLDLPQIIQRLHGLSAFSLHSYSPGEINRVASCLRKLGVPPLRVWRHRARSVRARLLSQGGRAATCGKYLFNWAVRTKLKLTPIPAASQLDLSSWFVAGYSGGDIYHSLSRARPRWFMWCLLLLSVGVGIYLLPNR

Row | SMILES | pIC50
1 | CC(=O)C1C(C2C(=O)[C@H](C(C)(C)C)N(Cc3ccc(F)cc3)C2=O)=Nc2ccc(NS(C)(=O)=O)cc2S1(=O)=O (stereo partly drawn) [N-{2-Acetyl-3-[(S)-5-tert-butyl-1-(4-fluoro-benzyl)-4-hydroxy-2-oxo-2,5-dihydro-1H-pyrrol-3-yl]-1,1-dioxo-1,4-dihydro-1lambda*6*-benzo[1,4]thiazin-7-yl}-methanesulfonamide] | 8.40
2 | CC(C)CCN1C(=O)C(C2=Nc3ccc(NS(C)(=O)=O)cc3S(=O)(=O)C2)C(=O)[C@@H]1C(C)(C)C (stereo partly drawn) [N-{3-[(S)-5-tert-Butyl-4-hydroxy-1-(3-methyl-butyl)-2-oxo-2,5-dihydro-1H-pyrrol-3-yl]-1,1-dioxo-1,4-dihydro-1lambda*6*-benzo[1,4]thiazin-7-yl}-methanesulfonamide] | 8.30
3 | CC(C)(C)CCN1C(=O)C(C2=Nc3ccc(NS(C)(=O)=O)cc3S(=O)(=O)C2)C(=O)[C@@H]1C(C)(C)C (stereo partly drawn) [N-{3-[(S)-5-tert-Butyl-1-(3,3-dimethyl-butyl)-4-hydroxy-2-oxo-2,5-dihydro-1H-pyrrol-3-yl]-1,1-dioxo-1,4-dihydro-1lambda*6*-benzo[1,4]thiazin-7-yl}-methanesulfonamide] | 8.10
4 | COc1cc(CN2C(=O)C(C3=Nc4ccc(NS(C)(=O)=O)cc4S(=O)(=O)C3)C(=O)[C@@H]2C(C)(C)C)ccc1F (stereo partly drawn) [N-{3-[(S)-5-tert-Butyl-1-(4-fluoro-3-methoxy-benzyl)-4-hydroxy-2-oxo-2,5-dihydro-1H-pyrrol-3-yl]-1,1-dioxo-1,4-dihydro-1lambda*6*-benzo[1,4]thiazin-7-yl}-methanesulfonamide] | 8.40
5 | CC(C)(C)[C@H]1C(=O)C(C2=Nc3ccc(NS(C)(=O)=O)cc3S(=O)(=O)C2)C(=O)N1Cc1ccc(F)cc1F (stereo partly drawn) [N-{3-[(S)-5-tert-Butyl-1-(2,4-difluoro-benzyl)-4-hydroxy-2-oxo-2,5-dihydro-1H-pyrrol-3-yl]-1,1-dioxo-1,4-dihydro-1lambda*6*-benzo[1,4]thiazin-7-yl}-methanesulfonamide] | 7.89
6 | CC(C)(C)[C@H]1C(=O)C(C2=Nc3ccc(NS(C)(=O)=O)cc3S(=O)(=O)C2)C(=O)N1Cc1ccccc1 (stereo partly drawn) [N-[3-((S)-1-Benzyl-5-tert-butyl-4-hydroxy-2-oxo-2,5-dihydro-1H-pyrrol-3-yl)-1,1-dioxo-1,4-dihydro-1lambda*6*-benzo[1,4]thiazin-7-yl]-methanesulfonamide] | 8.10
7 | CC(C)(C)[C@H]1C(=O)C(C2=Nc3ccc(NS(C)(=O)=O)cc3S(=O)(=O)C2)C(=O)N1Cc1ccc(F)c(Cl)c1 (stereo partly drawn) [N-{3-[(S)-5-tert-Butyl-1-(3-chloro-4-fluoro-benzyl)-4-hydroxy-2-oxo-2,5-dihydro-1H-pyrrol-3-yl]-1,1-dioxo-1,4-dihydro-1lambda*6*-benzo[1,4]thiazin-7-yl}-methanesulfonamide] | 8.30
